The source of these data is article PMC9462664, “Preparation and identification of anti-breast cancer cells peptides released from yak milk casein” (Frontiers in Nutrition, 2022).

No end group written: not given here.

For data set [1], the system named is MCF7 cells. Format: cell-based. On the procedure: (§1) The culture medium of MDA-MB-231 and MCF7 cells were DMEM containing 10% FBS and 1% AAC. The culture medium of MCF10A was DMEM/F12 containing CT (100°ng/mL), EGF (20°ng/mL), HS (5%), hydrocortisone (0.5°μg/mL), and insulin (10°ug/mL). All the cells were incubated using an incubator (MCO-20AIC, SANYO, Japan) with 5% CO2 and 95% humidity at 37°C.
(§2) Cell activity inhibition was conducted using a CCK8 kit according to the procedure offered by the manufacturer. The trypsinized cells were transferred into the 96-well plate (8,000 cells/well) and cultured for 24 h, then they were incubated with PBS (Control), YMCH (250°μg/mL) or synthetic peptides (0, 62.5, 125, 250, 500, and 1,000°μg/mL) for 48 h or 24–72 h. The CCK8 agent (20°μL) was pipetted into the well followed by incubation (37 °C, 4 h). The absorbance of the medium was acquired at 450 nm using a microplate reader (Multiskan Spectrum, Thermo, Waltham, MA, United States). Finally, according to the below formulae, the cell viability and its inhibition rate were calculated.
(§3) Cellviability(%)=Absorbanceofmediumfromthetreatmentgroup/Absorbanceofmediumfromthecontrolgroup×100
(§4) Inhibitionrateofcellviability(%)=(1Absorbanceofmediumfromthetreatmentgroup/Absorbanceofmediumfromthecontrolgroup)×100

For data set [2], the system named is MDA-MB-231 cells. It counts as cell-based. How it is done: as §1, §2, §3, §4
Another data set concerns pepsin and trypsin. The data set can be described thus: Stability against simulated gastrointestinal digestion. It counts as in vitro ADME. The note with it: peptide 5 mg/mL, pepsin pH 1.2, 37°C, 2 h, then trypsin pH 8, 37°C, enzyme:peptide 1:100 (w/w), RP-HPLC, new peaks digested vs undigested. How it is done: Stability of peptides against simulated gastrointestinal digestion was performed according to the method outlined previously with slight modification ([19]). Briefly, peptide solution (5 mg/mL) was digested by pepsin (pH 1.2, 37°C) for 2 h. Then the pH of the resulting solution was altered to eight with NaOH (1.0°M) to inactivate pepsin, and the peptides solution was further digested by trypsin (2 h, 37°C). Finally, trypsin was inactivated by a hot water bath (95°C, 10 min). The ratio of enzyme to peptide was 1:100 (w/w) in the two digesting processes. The digested and undigested samples were loaded into HPLC (1260 Infinity, Agilent, Santa Clara, CA, United States), respectively, to evaluate the stability of the peptides. […]

For data set [3], the system named is MCF7 cells. Description: Cell apoptosis determination (Annexin V/PI, flow cytometry). It counts as cell-based. The note with it: 250 μg/mL, 48 h, Annexin-V and PI, mean ± SD. On the procedure: (§5) Cell apoptosis determination was conducted by Annexin V staining of externalized phosphatidylserine in apoptotic cells using a cell apoptosis kit. Then the proportion of the apoptotic cells was analyzed by a BD flow cytometry (FACS101, Becton, Dickinson and Company, Franklin Lakes, NJ, United States).
(§6) FIGURE 7 TPVVVPPFL induced morphology alteration (A) and apoptosis of mammary carcinoma cells (B). MCF7 and MDA-MB-231 cells were incubated with TPVVVPPFL for 48 h at the concentration of 250 and 500°μg/mL, respectively. The image of the two cells was acquired by the inverted microscope, and the apoptotic cells were measured using a flow cytometry after treatment with Annexin-V and PI.

In data set [4] the test system is MDA-MB-231 cells. The description is as above. Format: cell-based. The note with it: 500 μg/mL, 48 h, Annexin-V and PI, mean ± SD. On the procedure: as §5, §6
Data set [5] deals with MCF7 cells. The data set can be described thus: Cell cycle determination (PI, flow cytometry). It counts as cell-based. The note with it: 250 μg/mL, 48 h. On the procedure: (§7) Cell cycle determination was conducted using a cell cycle kit according to its instructions. Trypsinized cells (MDA-MB-231 or MCF7) were pipetted into the 6-well plate and cultured. When cells confluence reached 50%, peptides were added to the wells, and the treatment lasted 48 h. The cells were harvested and washed with PBS. After being fixed by cold 75% ethanol, cells were treated with RNase A followed by incubation with PI. Finally, the cell cycles of samples were measured by a BD flow cytometer (FACS101, Becton, Dickinson and Company, Franklin Lakes, NJ, United States).
(§8) FIGURE 6 TPVVVPPFL elicited cell arrest of mammary carcinoma cells. MCF7 cells were incubated with TPVVVPPFL for 48 h at the concentration of 250°μg/mL. MDA-MB-231 cells were incubated with TPVVVPPFL for 48 h at the concentration of 500°μg/mL. The cell cycle distributions were analyzed using flow cytometry after treatment with PI.

Data set [6] has as its system MDA-MB-231 cells. Description: Cell cycle determination (PI, flow cytometry). Format: cell-based. The note with it: 500 μg/mL, 48 h. How it is done:
as §7, §8
(A flow cytometer gives signals particle by particle.)

For orientation: IC50 means the concentration that gives 50% inhibition.

As for TPVVVPPFL [TPVVVPPFL], the results for the IC50 in the data set on MCF7 cells [1] and in the data set with MDA-MB-231 cells [2] were 250 µg/mL and 500 µg/mL, respectively. Also, the “stability against simulated gastrointestinal digestion” value (“stability” for short) with pepsin and trypsin is on record as “stable in the simulated digestion condition”. Also, the figures for the apoptosis rate with MCF7 cells [3] and in the data set with MDA-MB-231 cells [4] were 48.37 ± 2.74% and 35.11 ± 2.95%, respectively. For the same sequence, the cell cycle arrest result in the data set on MCF7 cells [5] is given as “G2/M arrest”; in the data set with MDA-MB-231 cells [6] it was “S arrest”.
With NQFLPYPY [NQFLPYPY], the “stability” value in the data set with pepsin and trypsin is “stable in the simulated digestion condition”.
Turning to VAPFPEVFGK [VAPFPEVFGK], in the data set with pepsin and trypsin, the “stability” value was “hydrolyzed”.
